Read-outs that look alike come from different tables or passages of the source.
Assays:
CDK4/cyclin D1 = CDK4/cyclin D1 (Homo sapiens (Human), UniProt P11802); assay: CDK4/cyclin D1 enzymatic activity assay (TR-FRET, phosphorylation of pRb at Ser780); format: biochemical
Method in brief: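 Phosphorylation at pRb Ser780, detected by TR-FRET, gave IC50s and kinetics. Enzyme: baculovirus/Sf21-expressed human CDK4/cyclin D1. ATP at 3 μM initiated the reaction; EDTA (pH 8.0) stopped it after 60 min at 22° C.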

[1] = tested on: phosphorylation of pRb at the Ser780 site in JeKo-1 mantle cell lymphoma cells; assay: CDK4 cellular assay: ELISA of pRb phosphorylation at Ser780 in JeKo-1 cells; format: cell-based; conditions: Homo sapiens
CDK1/cyclin B = CDK1/cyclin B (Homo sapiens (Human), UniProt P06493); assay: CDK1/cyclin B enzymatic activity assay (IMAP-FP); format: biochemical
Text: CDK1/Cyclin B Enzymatic Activity Assay
A 384-well microtiter IMAP-FP™ (Molecular Devices Trade Mark Technology) endpoint assay was used for CDK1/cyclin B kinase activity measurements. The same assay was used for IC50 determination of small molecule inhibitors.

[2] = 0.3 nM CDK4/cyclin D1, 150 nM biotin-pRb (773-924), 3 μM ATP, 60 min at 22° C., read-out: Biochemical CDK4 enzyme IC50
[3] = JeKo-1 cells, p-pRb % inhibition adjusted with total pRb levels, read-out: Normalized cellular ppRb inhibition IC50
[4] = JeKo-1 cells, p-pRb Ser780 ELISA, non-normalized, read-out: Cellular ppRb inhibition IC50
[5] = […] CDK1/cyclin B, 100 nM Tamra Histone-H1 peptide, 20 μM ATP, 120 min at room temperature, read-out: Biochemical CDK1 enzyme IC50
[6] = JeKo-1, JeKo-1 cells, p-pRb % inhibition adjusted with total pRb levels, read-out: Normalized cellular ppRb inhibition IC50
[7] = JeKo-1, JeKo-1 cells, p-pRb Ser780 ELISA, non-normalized, read-out: Cellular ppRb inhibition IC50
[8] = 0.25 nM CDK1/cyclin B, 100 nM Tamra Histone-H1 peptide, 20 μM ATP, 120 min at room temperature, read-out: Biochemical CDK1 enzyme IC50

CDK1/cyclin B, sequence (P06493 whole entry, species assumed): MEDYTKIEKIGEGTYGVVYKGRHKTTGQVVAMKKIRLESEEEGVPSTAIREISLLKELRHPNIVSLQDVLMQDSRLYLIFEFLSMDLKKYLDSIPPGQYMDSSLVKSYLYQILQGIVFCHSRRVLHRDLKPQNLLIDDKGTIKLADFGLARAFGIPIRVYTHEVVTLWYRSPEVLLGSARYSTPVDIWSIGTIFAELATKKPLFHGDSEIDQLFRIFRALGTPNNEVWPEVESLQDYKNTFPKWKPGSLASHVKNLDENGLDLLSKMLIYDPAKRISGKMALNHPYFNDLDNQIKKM
CDK1/cyclin B, sequence (P14635 whole entry partner, species assumed): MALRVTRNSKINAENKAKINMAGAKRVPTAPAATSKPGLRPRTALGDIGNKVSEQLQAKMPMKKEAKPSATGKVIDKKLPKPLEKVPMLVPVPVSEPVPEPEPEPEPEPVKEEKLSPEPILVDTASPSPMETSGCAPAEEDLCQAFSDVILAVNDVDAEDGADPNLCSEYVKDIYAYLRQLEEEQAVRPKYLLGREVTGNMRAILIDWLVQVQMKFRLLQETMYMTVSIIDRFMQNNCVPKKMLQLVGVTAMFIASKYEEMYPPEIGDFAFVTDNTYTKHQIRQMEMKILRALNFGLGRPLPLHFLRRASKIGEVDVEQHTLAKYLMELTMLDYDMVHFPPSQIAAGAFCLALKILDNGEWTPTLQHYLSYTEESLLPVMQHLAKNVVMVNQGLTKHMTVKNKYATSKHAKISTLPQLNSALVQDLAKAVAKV
CDK4/cyclin D1, sequence (P11802 whole entry): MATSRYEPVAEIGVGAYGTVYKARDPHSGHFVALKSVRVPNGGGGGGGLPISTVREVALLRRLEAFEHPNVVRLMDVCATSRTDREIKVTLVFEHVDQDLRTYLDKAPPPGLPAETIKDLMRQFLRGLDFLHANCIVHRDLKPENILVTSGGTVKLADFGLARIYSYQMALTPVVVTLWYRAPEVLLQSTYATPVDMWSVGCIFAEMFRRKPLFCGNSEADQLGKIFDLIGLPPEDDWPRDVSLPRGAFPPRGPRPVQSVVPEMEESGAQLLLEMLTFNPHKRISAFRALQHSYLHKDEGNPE
CDK4/cyclin D1, sequence (P24385 whole entry partner): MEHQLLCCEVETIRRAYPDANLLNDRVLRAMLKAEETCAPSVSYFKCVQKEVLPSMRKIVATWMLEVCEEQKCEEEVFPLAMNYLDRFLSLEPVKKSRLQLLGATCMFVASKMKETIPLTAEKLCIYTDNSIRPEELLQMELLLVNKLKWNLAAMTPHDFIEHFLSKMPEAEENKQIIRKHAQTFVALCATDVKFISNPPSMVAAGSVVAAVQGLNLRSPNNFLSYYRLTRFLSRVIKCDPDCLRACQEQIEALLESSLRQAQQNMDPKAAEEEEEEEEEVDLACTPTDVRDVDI

SMILES | IC50 (CDK4/cyclin D1; [2]) | IC50 [1, 3] | IC50 [1, 4] | IC50 (CDK1/cyclin B; [5]) | IC50 [1, 6] | IC50 [1, 7] | IC50 (CDK1/cyclin B; [8]) | IC50 (CDK4/cyclin D1) | IC50 (CDK1/cyclin B) | IC50 ([1]; JeKo-1, read-out: Cellular ppRb inhibition IC50) | IC50 ([1]; JeKo-1, read-out: Normalized cellular ppRb inhibition IC50)
CN(C)C(=O)c1cc2cnc(Nc3ccc(N4C[C@@]5(CCCNC5)OC4=O)cn3)nc2n1C1CCCC1 [Example 109, 7-Cyclopentyl-2-[5-((S)-2-oxo-1-oxa-3,7-diaza-spiro[4.5]dec-3-yl)-pyridin-2-ylamino]-7H-pyrrolo[2,3-d]pyrimidine-6-carboxylic acid dimethylamide] | 0.012 µM | 0.075 µM | 0.048 µM | > 15 µM |  |  |  |  |  |  | 
CN(C)C(=O)c1cc2cnc(Nc3ccc(C(=O)N4CC5CCC(C4)O5)cn3)nc2n1C1CCCC1 [Example 74, 7-Cyclopentyl-2-[5-(8-oxa-3-aza-bicyclo[3.2.1]octane-3-carbonyl)-pyridin-2-ylamino]-7H-pyrrolo[2,3-d]pyrimidine-6-carboxylic acid dimethylamide] | 0.067 µM |  |  |  | 0.257 µM | 0.151 µM | > 15 µM |  |  |  | 
CNC(=O)c1cc2cnc(Nc3ccc(N4C[C@H]5CC[C@@H](CC4=O)N5C)cn3)nc2n1C1CCCC1 [Example 125, 7-cyclopentyl-2-[5-((1R,6S)-9-methyl-4-oxo-3,9-diaza-bicyclo[4.2.1]non-3-yl)-pyridin-2-ylamino]-7H-pyrrolo[2,3-c]pyrimidine-6-carboxylic acid methylamide] | 0.015 µM | 0.161 µM | 0.083 µM | > 15 µM |  |  |  |  |  |  | 
CN(C)C(=O)c1cc2cnc(Nc3ccc(N4CCN5CCC[C@@H]5C4=O)cn3)nc2n1C1CCCC1 [Example 147] | 0.027 µM |  |  | > 15 µM | 0.31 µM | 0.257 µM |  |  |  |  | 
CN(C)C(=O)c1cc2cnc(Nc3ccc(N4CC5CCC(N5)C4=O)cn3)nc2n1C1CCCCCC1 (centres unmarked) [Example 80, 7-Cycloheptyl-2-[5-(2-oxo-3,8-diaza-bicyclo[3.2.1]oct-3-yl)-pyridin-2-ylamino]-7H-pyrrolo[2,3-d]pyrimidine-6-carboxylic acid dimethylamide] |  |  |  |  | 0.074 to 0.474 µM | 0.051 to 0.32 µM | 14 µM | 0.012 to 0.014 µM |  |  | 
CN(C)C(=O)c1cc2cnc(Nc3ccc(C(=O)N4CC5CNCC5C4)cn3)nc2n1C1CCCC1 (centres unmarked) [Example 32, 7-cyclopentyl-N,N-dimethyl-2-(5-(octahydropyrrolo[3,4-c]pyrrole-2-carbonyl)pyridin-2-ylamino)-7H-pyrrolo[2,3-d]pyrimidine-6-carboxamide] | 0.015 to 0.021 µM |  |  | > 15 µM | 0.212 µM | 0.131 µM |  |  |  |  | 
CN(C)C(=O)c1cc2cnc(Nc3ccc(N4CC5COCC(CC4=O)N5)cn3)nc2n1C1CCCC1 (centres unmarked) [Example 145, 7-Cyclopentyl-2-[5-(4-oxo-8-oxa-3,10-diaza-bicyclo[4.3.1]dec-3-yl)-pyridin-2-ylamino]-7H-pyrrolo[2,3-d]pyrimidine-6-carboxylic acid dimethylamide] | 0.032 µM | 0.162 µM | 0.045 µM | > 15 µM |  |  |  |  |  |  | 
CN1C[C@@H]2CC(=O)N(c3ccc(Nc4ncc5cc(C(=O)N(C)C)n(C6CCCCCC6)c5n4)nc3)C[C@@H]2C1 [Example 93, 7-cycloheptyl-N,N-dimethyl-2-(5-((3aS,7aR)-2-methyl-6-oxotetrahydro-1H-pyrrolo[3,4-c]pyridin-5(6H,7H,7aH)-yl)pyridin-2-ylamino)-7H-pyrrolo[2,3-d]pyrimidine-6-carboxamide] | < 0.005 µM |  |  | > 15 µM | 0.02 µM | 0.008 µM |  |  |  |  | 
CN(C)C(=O)c1cc2cnc(Nc3ccc(C(=O)N4CC5CCC(C4)C5(C)O)cn3)nc2n1C1CCCCCC1 (centres unmarked) [Example 6, 7-cycloheptyl-2-(5-(8-hydroxy-8-methyl-3-azabicyclo[3.2.1]octane-3-carbonyl)pyridin-2-ylamino)-N,N-dimethyl-7H-pyrrolo[2,3-d]pyrimidine-6-carboxamide] | 0.187 µM | 0.889 µM | 0.148 µM | > 15 µM |  |  |  |  |  |  | 
CN(C)C(=O)c1cc2cnc(Nc3ccc(C(=O)N4CC5CCC4C5O)cn3)nc2n1C1CCCC1 (centres unmarked) [Example 26] | 0.038 µM | 0.388 µM | 0.325 µM | > 15 µM |  |  |  |  |  |  | 
CN(C)C(=O)c1cc2cnc(Nc3ccc(C(=O)N4CC5CC[C@@H](C4)N5)cn3)nc2n1[C@H]1C[C@@H]2CC[C@H]1C2 [Example 77, 7-(1S,2S,4R)-Bicyclo[2.2.1]hept-2-yl-2-[5-(3,8-diaza-bicyclo[3.2.1]octane-3-carbonyl)-pyridin-2-ylamino]-7H-pyrrolo[2,3-d]pyrimidine-6-carboxylic acid dimethylamide] | 0.027 µM |  |  |  | 0.225 µM | 0.172 µM |  |  | > 15 µM |  | 
CN(C)C(=O)c1cc2cnc(Nc3ccc(N4CC5(CCCNCC5)OC4=O)cn3)nc2n1C1CCCC1 (centres unmarked) [Example 103, 7-cyclopentyl-N,N-dimethyl-2-(5-(2-oxo-1-oxa-3,8-diazaspiro[4.6]undecan-3-yl)pyridin-2-ylamino)-7H-pyrrolo[2,3-d]pyrimidine-6-carboxamide] | 0.017 µM | 0.064 to 0.169 µM | 0.024 to 0.072 µM | > 15 µM |  |  |  |  |  |  | 
CN(C)C(=O)c1cc2cnc(Nc3ccc(N4C[C@H]5CNC[C@H]5CC4=O)cn3)nc2n1C1CCCC1 (stereo in doubt) [Example 91, 7-cyclopentyl-N,N-dimethyl-2-(5-(cis-6-oxotetrahydro-1H-pyrrolo[3,4-c]pyridin-5(6H,7H,7aH)-yl)pyridin-2-ylamino)-7H-pyrrolo[2,3-d]pyrimidine-6-carboxamide] | 0.005 to 0.007 µM |  |  |  |  |  | 13.3 to 14.9 µM |  |  | 0.01 to 0.027 µM | 0.022 to 0.074 µM
CN(C)C(=O)c1cc2cnc(Nc3ccc(C(=O)N4CC5CC(C4)N(C)C5)cn3)nc2n1C1CCCC1 (centres unmarked) [Example 13, 7-Cyclopentyl-2-[5-(6-methyl-3,6-diaza-bicyclo[3.2.1]octane-3-carbonyl)-pyridin-2-ylamino]-7H-pyrrolo[2,3-d]pyrimidine-6-carboxylic acid dimethylamide] | 0.006 µM | 0.145 µM | 0.065 µM | 8.44 µM |  |  |  |  |  |  | 
CN(C)C(=O)c1cc2cnc(Nc3ccc(N4CC5(CCNCC5)OC4=O)cn3)nc2n1C1CCCC1 [Example 119, 7-cyclopentyl-N,N-dimethyl-2-(5-(2-oxo-1-oxa-3,8-diazaspiro[4.5]decan-3-yl)pyridin-2-ylamino)-7H-pyrrolo[2,3-d]pyrimidine-6-carboxamide] | 0.012 µM | 0.072 to 0.083 µM | 0.026 to 0.047 µM | > 15 µM |  |  |  |  |  |  | 
CN(C)C(=O)c1cc2cnc(Nc3ccc(C(=O)N4CC5CCC(C4)N5)cn3)nc2n1-c1ccc(C(C)(C)C)cc1 [Example 53, 7-(4-tert-Butyl-phenyl)-2-[5-(3,8-diaza-bicyclo[3.2.1]octane-3-carbonyl)-pyridin-2-ylamino]-7H-pyrrolo[2,3-d]pyrimidine-6-carboxylic acid dimethylamide] | 0.003 µM |  |  | > 15 µM | 0.007 to 0.027 µM | 0.007 to 0.014 µM |  |  |  |  | 
CN(C)C(=O)c1cc2cnc(Nc3ccc(C(=O)N4CCC5(CC4)CNC5)cn3)nc2n1C1CCCCCC1 [Example 5, 2-(5-(2,7-diazaspiro[3.5]nonane-7-carbonyl)pyridin-2-ylamino)-7-cycloheptyl-N,N-dimethyl-7H-pyrrolo[2,3-d]pyrimidine-6-carboxamide] | 0.008 to 0.016 µM | 0.117 µM | 0.115 µM | > 15 µM |  |  |  |  |  |  | 
CN(C)C(=O)c1cc2cnc(Nc3ccc(C(=O)N4CC5CCC4C5O)cn3)nc2n1C1CCCCCC1 [Example 7, 7-cycloheptyl-2-(5-((1R,4R,7R)-7-hydroxy-2-azabicyclo[2.2.1]heptane-2-carbonyl)pyridin-2-ylamino)-N,N-dimethyl-7H-pyrrolo[2,3-d]pyrimidine-6-carboxamide] | 0.021 µM | 0.288 µM | 0.127 µM | 17.6 µM |  |  |  |  |  |  | 
CN(C)C(=O)c1cc2cnc(Nc3ccc(C(=O)N4C[C@H]5CN[C@H](C5)C4)cn3)nc2n1C1CCCC1 [Example 11, 7-Cyclopentyl-2-[5-((1R,5R)-3,6-diaza-bicyclo[3.2.1]octane-3-carbonyl)-pyridin-2-ylamino]-7H-pyrrolo[2,3-d]pyrimidine-6-carboxylic acid dimethylamide] | 0.009 µM |  |  | > 15 µM | 0.068 µM | 0.039 µM |  |  |  |  | 
CN(C)C(=O)c1cc2cnc(Nc3ccc(C(=O)N4CC5CCC(C4)N5)cn3)nc2n1C1CCCOC1 (centres unmarked) [Example 65, 2-(5-(3,8-diazabicyclo[3.2.1]octane-3-carbonyl)pyridin-2-ylamino)-N,N-dimethyl-7-(tetrahydro-2H-pyran-3-yl)-7H-pyrrolo[2,3-d]pyrimidine-6-carboxamide] | 0.076 µM | 0.132 to 0.458 µM | 0.126 to 0.211 µM | > 15 µM |  |  |  |  |  |  | 
